Patent US11654119B2, “Bioavailable curcumin nanoparticles and methods of making” (NUtech Ventures, priority 2018, dated 2023)

Experiments:
[1] = Simulated gastrointestinal digestion (oral, gastric, intestinal); bioaccessible fraction; type: in vitro ADME; details: after simulated digestion
Protocol: Gastrointestinal digestion of the samples was simulated adopting the method described by Minekus et al., 2014, Food & Function, 5(6), 1113-1124. Gastrointestinal digestion consisted of a sequential oral, gastric and intestinal digestion. Simulated salivary fluid (SSF), simulated gastric fluid (SGF) and simulated intestinal fluid (SIF) were prepared using a method reported previously (Minekus et al., 2014). […] The experiments were performed in 50 mL Erlenmeyer flasks. All digestion experiments were carried out in triplicate.
First, the sample (0.25 g) and SSF electrolyte stock solution (3.5 mL) were added into the flask. Then, 0.5 mL of α-amylase solution (750 U/mL) was included to have a final mixture with 75 U/mL. Subsequently, 25 μL of 0.3 M CaCl2 and 0.975 mL of deionized water were added. Finally, pH of the mixture was adjusted to pH 7.0 and the mixture was agitated in a shaking water bath (Precision SWB 27, Thermo Fisher Scientific, NH, USA) for 30 sec at 37° C. with a mixing rate of 150 rpm (Mennah-Govela & Bornhorst, 2016; Minekus et al., 2014).
After the oral digestion, oral bolus (5 mL) was mixed with SGF electrolyte stock solution (3.25 mL, pH 3.0) and the pH was adjusted to 3.0 using 1 M HCl (75 μL). […] The pH of the mixture was monitored and kept at pH 3.0 using 1 M HCl. […]

[2] = Plasma CUR concentration over time after administration (bioavailability in rats); type: in vivo; details: rat, 0-90 minutes after administration, read-out: maximum concentration of CUR in the plasma (Cmax)
Text: FIG. 12 depicts the bioavailability of curcumin (CUR) impregnated in the nanoporous starch aerogels in rats as analyzed in Example 2.
The plasma CUR concentration was monitored over time after administration.

[3] = Solubility of curcumin in ethanol; type: physicochemical
Protocol: Impregnation of curcumin was conducted during the solvent exchange step. Excess curcumin was mixed with ethanol at room temperature (21° C.) and the undissolved curcumin was removed by filtration through a 0.45 μm pore-size filter. […] Afterwards, curcumin impregnated alcogels were dried using the same SC-CO2 drying conditions. Moreover, curcumin impregnation was investigated at 60° C., where higher solubility of curcumin in ethanol was obtained. Curcumin impregnated NSAs were called CUR-NSA-60° C. or CUR-NSA-RT depending on the impregnation temperature of 60° C. or room temperature (RT), respectively. Curcumin impregnated NSAs were stored in the freezer at −18° C. until characterized.
Impregnation capacity of the Curcumin-NSA-RT, where impregnation was performed at room temperature (21° C.), was 14.4 mg curcumin/g NSA (FIG. 5). When temperature of the impregnation increased to 60° C. […] Impregnation capacity was basically based on the solubility of curcumin in ethanol. […] The reason for a drastic increase in the impregnation capacity at 60° C. was the crystallization of curcumin in the saturated ethanolic curcumin solution on the surface of the NSA due to temperature drop to 40° C. during SC-CO2 drying. Crystallization from ethanol before the supercritical conditions reached led to the formation of long curcumin crystals (data not shown) which impacted the bioaccessibility of curcumin after simulated digestion (FIG. 10).

[4] = 10 MPa and 40° C.; cited from earlier work
[5] = in humans; cited from earlier work

concentration of curcumin in the bioaccessible fraction [1]: 3000 ng/mL
Cmax [2]: 500 nM
increase in the solubility of curcumin in ethanol ([3]; 21 to 60° C.): 3.9 fold
solubility of curcumin in ethanol ([3]; 21° C.): 4.4±0.2 mg curcumin/mL ethanol
solubility of curcumin in ethanol ([3]; 60° C.): 17.2±0.3 mg curcumin/mL ethanol
SMILES: COc1cc(/C=C/C(=O)CC(=O)/C=C/c2ccc(O)c(OC)c2)ccc1O [crude curcumin, Curcumin (diferuloylmethane)]
solubility of curcumin in SC-CO2 [4]: ~0.4 ng/mL
bioavailability [5]: ~1%
